According to US11459325B2, “Heterocyclic compound” (Takeda Pharmaceutical Company Limited, priority 2018, dated 2022):

These molecules were tested on GBA mutant human fibroblasts GM008760 (assay: Glucosylceramide lowering assay). Details: 10 μM test compound, 4 days culture; GlcCer (C16:0)/Cer (C16:0) molar ratio of test compound group relative to DMSO control group x100; smaller value = glucosylceramide lowering.
Type: cell-based
Method: Glucosylceramide Lowering Assay
Using GBA mutant human fibroblasts containing mutated glucosylceramidase, the effect of test compounds on glucosylceramide reduction was evaluated.
GBA mutant human fibroblasts GM008760 (Coriel Institute) were seeded in a 96-well multiwell plate at a density of 5,000 cells/100 μL culture solution/well. GlutaMAX (Thermo Fishcer Scientific), penicillin-streptomycin, and Minimum Essential Media (Thermo Fishcer Scientific) supplemented with 15% fetal bovine serum were used as a culture solution. After culturing for 2 days, a 10 mM DMSO solution of the test compound diluted with the culture solution was added to a 96-well plate by 100 μL to adjust a final test compound concentration to 10 μM. After culturing the cells for 4 days in the presence of the test compound, the culture solution was removed, and the cells adhered to the 96-well plate were washed with a phosphate buffer (ThermoFisher Scientific, product number 14190-144). A solvent composed of 50% ethanol and 50% isopropanol was added to the 96-well plate by 100 μL, and the intracellular lipids were dissolved by pipetting. A solution prepared by dissolving N-Octadecanoyl-D35-psychosine (50 ng/mL, Matreya LLC Inc.) as an internal standard in 50% ethanol and 50% isopropanol was added to the sample in an equal volume, and 2.5 μL of the centrifuged supernatant was used as the test compound group.
In the same manner as above, a control group was prepared by using DMSO instead of the 10 mM DMSO solution of the test compound.
For the test compound group and the control group, molar concentrations of glucosylceramide [GlcCer (C16:0)] and ceramide [Cer (C16:0)] were quantified using Rapidfire-MS/MS (API-5000, Turbo-ESI, SRM), and the glucosylceramide lowering effect of the test compound group relative to the control group was evaluated by the following formula. (GlcCer/Cer of test compound group)/(GlcCer/Cer of control group)×100 wherein GlcCer/Cer is the ratio of the molar concentration of glucosylceramide to that of ceramide.
In this test, when the numerical value obtained by the above calculation formula is small, glucosylceramide is metabolized to ceramide by the test compound, or the synthesis of glucosylceramide from ceramide is inhibited by the test compound, that is, it can be said that the test compound has a glucosylceramide lowering effect.

Compound | 10 μM GlcCer/Cer (% of control)
Cc1cn(C)c(=O)c2c(C(=O)N3CC4CC4(c4ccc(OC(F)(F)F)cc4)C3)cnn12 (stereo not shown) [Example 305, 5,7-dimethyl-3-((1-(4-(trifluoromethoxy)phenyl)-3-azabicyclo[3.1.0]hex-3-yl)carbonyl)pyrazolo[1,5-a]pyrazin-4(5H)-one] | 47 % of control
Cc1cn(C)c(=O)c2c(C(=O)N3CC4CC4(c4ccc(Cl)cc4)C3)cnn12 (stereo not shown) [Example 307, 3-((1-(4-chlorophenyl)-3-azabicyclo[3.1.0]hex-3-yl)carbonyl)-5,7-dimethylpyrazolo[1,5-a]pyrazin-4(5H)-one] | 65 % of control

Same assay, conditions: Homo sapiens, Fibroblast, 96 h; 10 μM test compound, 4 days culture; GlcCer (C16:0)/Cer (C16:0) molar ratio of test compound group relative to DMSO control group x100; smaller value = glucosylceramide lowering

Compound | activity at 10 µM [%]
CCCCO[C@H]1CC[C@H](NC(=O)c2cnn3c(C)cn(C)c(=O)c23)CC1 [Example 283, N-(trans-4-butoxycyclohexyl)-5,7-dimethyl-4-oxo-4,5-dihydropyrazolo[1,5-a]pyrazine-3-carboxamide] | 75
Cc1cn(C)c(=O)c2c(C(=O)NCc3noc(-c4ccc(Cl)cc4)n3)cnn12 [Example 286, N-((5-(4-chlorophenyl)-1,2,4-oxadiazol-3-yl)methyl)-5,7-dimethyl-4-oxo-4,5-dihydropyrazolo[1,5-a]pyrazine-3-carboxamide] | 67
Cc1cn(C)c(=O)c2c(C(=O)N3CCC(Oc4ccc(OC(F)(F)F)cc4)CC3)cn(C)c12 [Example 288, 1,5,7-trimethyl-3-((4-(4-(trifluoromethoxy)phenoxy)piperidin-1-yl)carbonyl)-1,5-dihydro-4H-pyrrolo[3,2-c]pyridin-4-one] | 27
Cn1cc(C(=O)Nc2ccc(N3CCOCC3)cc2)c2c(=O)n(CC#N)ccc21 [Example 292, 5-(cyanomethyl)-1-methyl-N-(4-(morpholin-4-yl)phenyl)-4-oxo-4,5-dihydro-1H-pyrrolo[3,2-c]pyridine-3-carboxamide] | 89
COc1ccccc1-n1ccc2c(c(C(=O)Nc3ccc(N4CCOCC4)cc3)cn2C)c1=O [Example 293, 5-(2-methoxyphenyl)-1-methyl-N-(4-(morpholin-4-yl)phenyl)-4-oxo-4,5-dihydro-1H-pyrrolo[3,2-c]pyridine-3-carboxamide] | 52
Cn1cc(C(=O)Nc2ccc(N3CCOCC3)cc2)c2c(=O)n(-c3ccccc3OCC(F)(F)F)ccc21 [Example 294, 1-methyl-N-(4-(morpholin-4-yl)phenyl)-4-oxo-5-(2-(2,2,2-trifluoroethoxy)phenyl)-4,5-dihydro-1H-pyrrolo[3,2-c]pyridine-3-carboxamide] | 36
COc1cc(F)ccc1-n1ccc2c(c(C(=O)Nc3ccc(N4CCOCC4)cc3)cn2C)c1=O [Example 295, 5-(4-fluoro-2-methoxyphenyl)-1-methyl-N-(4-(morpholin-4-yl)phenyl)-4-oxo-4,5-dihydro-1H-pyrrolo[3,2-c]pyridine-3-carboxamide] | 66
Cn1cc(C(=O)NC(C)(C)c2ccc(Cl)cc2)c2c(=O)n(CC#N)ccc21 [Example 296, N-(2-(4-chlorophenyl)propan-2-yl)-5-(cyanomethyl)-1-methyl-4-oxo-4,5-dihydro-1H-pyrrolo[3,2-c]pyridine-3-carboxamide] | 52
Cc1cn(C)c(=O)c2c(C(=O)N3CCC(Oc4ccc(OC(F)(F)F)cc4)CC3)cnn12 [Example 303, 5,7-dimethyl-3-((4-(4-(trifluoromethoxy)phenoxy)piperidin-1-yl)carbonyl)pyrazolo[1,5-a]pyrazin-4(5H)-one] | 60
Cc1cn(C)c(=O)c2c(C(=O)N3CC4CC4(c4ccc(Cl)cc4)C3)cnn12 (stereo not shown) [Example 304, 3-((1-(4-chlorophenyl)-3-azabicyclo[3.1.0]hex-3-yl)carbonyl)-5,7-dimethylpyrazolo[1,5-a]pyrazin-4(5H)-one] | 64
Cc1cn(C)c(=O)c2c(C(=O)NC(C)(C)c3ccc(Cl)cc3)cnn12 [Example 306, N-(2-(4-chlorophenyl)propan-2-yl)-5,7-dimethyl-4-oxo-4,5-dihydropyrazolo[1,5-a]pyrazine-3-carboxamide] | 51
